Tests used:
Assay in all cases: relative viability (nuclei count vs DMSO), 5 days (fraction); higher = more cells survive
RERF-LC-KJ = test system: RERF-LC-KJ
Procedure, shortened: (§1)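 One day after seeding in 1536-well plates, lung cancer cell lines were dosed by pin tool. Dosing was either single-drug or a fixed anchor-drug dose plus five library-drug doses (not always all listed) in √10 steps. After 5 days, nuclei were stained in one fix-and-stain step and counted on 4× images, and relative viability is the nuclei count of treated wells over that of vehicle wells, given as the median of duplicate plates.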

NCI-H2405 = test system: NCI-H2405
Procedure, shortened: as §1

HCC-827 = test system: HCC-827
Procedure, shortened: as §1

NCI-H1666 = test system: NCI-H1666
Procedure, shortened: as §1

LK-2 = test system: LK-2
Procedure, shortened: as §1

SK-LU-1 = test system: SK-LU-1
Procedure, shortened: as §1

SW 900 = test system: SW 900
Procedure, shortened: as §1

NCI-H1975 = test system: NCI-H1975
Procedure, shortened: as §1

NCI-H2126 = test system: NCI-H2126
Procedure, shortened: as §1

NCI-H23 = test system: NCI-H23
Procedure, shortened: as §1

LXF-289 = test system: LXF-289
Procedure, shortened: as §1

EMC-BAC-2 = test system: EMC-BAC-2
Procedure, shortened: as §1

SW 1573 = test system: SW 1573
Procedure, shortened: as §1

EKVX = test system: EKVX
Procedure, shortened: as §1

EPLC-272H = test system: EPLC-272H
Procedure, shortened: as §1

HCC-78 = test system: HCC-78
Procedure, shortened: as §1

NCI-H322M = test system: NCI-H322M
Procedure, shortened: as §1

ChaGo-K-1 = test system: ChaGo-K-1
Procedure, shortened: as §1

LCLC-103H = test system: LCLC-103H
Procedure, shortened: as §1

LU99A = test system: LU99A
Procedure, shortened: as §1

PC-14 = test system: PC-14
Procedure, shortened: as §1

NCI-H2342 = test system: NCI-H2342
Procedure, shortened: as §1

CCN(CC)CCCCNc1ncc2cc(-c3cc(OC)cc(OC)c3)c(NC(=O)NC(C)(C)C)nc2n1 + CC(=O)Nc1cccc(-n2c(=O)n(C3CC3)c(=O)c3c(Nc4ccc(I)cc4F)n(C)c(=O)c(C)c32)c1 [Trametinib] (partner 0.02 µM)
relative viability (RERF-LC-KJ; first compound 0.01 µM): 0.925
relative viability (RERF-LC-KJ; first compound 0.03162 µM): 0.923
relative viability (RERF-LC-KJ; first compound 0.1 µM): 0.94
relative viability (RERF-LC-KJ; first compound 0.3162 µM): 0.906
relative viability (RERF-LC-KJ; first compound 1 µM): 0.818
relative viability (NCI-H2405; first compound 0.01 µM): 0.574
relative viability (NCI-H2405; first compound 0.03162 µM): 0.669
relative viability (NCI-H2405; first compound 0.1 µM): 0.796
relative viability (NCI-H2405; first compound 0.3162 µM): 0.655
relative viability (NCI-H2405; first compound 1 µM): 0.5
relative viability (HCC-827; first compound 0.01 µM): 0.539
relative viability (HCC-827; first compound 0.03162 µM): 0.59
relative viability (HCC-827; first compound 0.1 µM): 0.585
relative viability (HCC-827; first compound 0.3162 µM): 0.587
relative viability (HCC-827; first compound 1 µM): 0.516
relative viability (NCI-H1666; first compound 0.01 µM): 0.788
relative viability (NCI-H1666; first compound 0.03162 µM): 0.834
relative viability (NCI-H1666; first compound 0.1 µM): 0.93
relative viability (NCI-H1666; first compound 0.3162 µM): 0.973
relative viability (NCI-H1666; first compound 1 µM): 0.875
relative viability (LK-2; first compound 0.01 µM): 0.856
relative viability (LK-2; first compound 0.03162 µM): 0.649
relative viability (LK-2; first compound 0.1 µM): 0.756
relative viability (LK-2; first compound 0.3162 µM): 0.597
relative viability (LK-2; first compound 1 µM): 0.299
relative viability (SK-LU-1; first compound 0.01 µM): 0.491
relative viability (SK-LU-1; first compound 0.03162 µM): 0.444
relative viability (SK-LU-1; first compound 0.1 µM): 0.434
relative viability (SK-LU-1; first compound 0.3162 µM): 0.409
relative viability (SK-LU-1; first compound 1 µM): 0.333
relative viability (SW 900; first compound 0.01 µM): 0.787
relative viability (SW 900; first compound 0.03162 µM): 0.916
relative viability (SW 900; first compound 0.1 µM): 0.947
relative viability (SW 900; first compound 0.3162 µM): 0.665
relative viability (SW 900; first compound 1 µM): 0.522
relative viability (NCI-H1975; first compound 0.01 µM): 0.328
relative viability (NCI-H1975; first compound 0.03162 µM): 0.314
relative viability (NCI-H1975; first compound 0.1 µM): 0.345
relative viability (NCI-H1975; first compound 0.3162 µM): 0.405
relative viability (NCI-H1975; first compound 1 µM): 0.348
relative viability (NCI-H2126; first compound 0.01 µM): 0.533
relative viability (NCI-H2126; first compound 0.03162 µM): 0.578
relative viability (NCI-H2126; first compound 0.1 µM): 0.58
relative viability (NCI-H2126; first compound 0.3162 µM): 0.58
relative viability (NCI-H2126; first compound 1 µM): 0.578
relative viability (NCI-H23; first compound 0.01 µM): 0.321
relative viability (NCI-H23; first compound 0.03162 µM): 0.341
relative viability (NCI-H23; first compound 0.1 µM): 0.432
relative viability (NCI-H23; first compound 0.3162 µM): 0.4
relative viability (NCI-H23; first compound 1 µM): 0.319
relative viability (LXF-289; first compound 0.01 µM): 0.704
relative viability (LXF-289; first compound 0.03162 µM): 0.703
relative viability (LXF-289; first compound 0.1 µM): 0.637
relative viability (LXF-289; first compound 0.3162 µM): 0.759
relative viability (LXF-289; first compound 1 µM): 0.644
relative viability (EMC-BAC-2; first compound 0.03162 µM): 0.986
relative viability (EMC-BAC-2; first compound 0.1 µM): 0.917
relative viability (EMC-BAC-2; first compound 0.3162 µM): 0.847
relative viability (EMC-BAC-2; first compound 1 µM): 0.83
relative viability (SW 1573; first compound 0.01 µM): 0.455
relative viability (SW 1573; first compound 0.03162 µM): 0.539
relative viability (SW 1573; first compound 0.1 µM): 0.605
relative viability (SW 1573; first compound 0.3162 µM): 0.516
relative viability (SW 1573; first compound 1 µM): 0.433
relative viability (EKVX; first compound 0.03162 µM): 0.4
relative viability (EKVX; first compound 0.1 µM): 0.365
relative viability (EKVX; first compound 0.3162 µM): 0.328
relative viability (EKVX; first compound 1 µM): 0.311
relative viability (EPLC-272H; first compound 0.01 µM): 0.263
relative viability (EPLC-272H; first compound 0.1 µM): 0.277
relative viability (EPLC-272H; first compound 0.3162 µM): 0.281
relative viability (EPLC-272H; first compound 1 µM): 0.215
relative viability (HCC-78; first compound 0.01 µM): 0.874
relative viability (HCC-78; first compound 0.03162 µM): 0.685
relative viability (HCC-78; first compound 0.1 µM): 0.842
relative viability (HCC-78; first compound 0.3162 µM): 0.819
relative viability (HCC-78; first compound 1 µM): 0.76
relative viability (NCI-H322M; first compound 0.01 µM): 0.514
relative viability (NCI-H322M; first compound 0.03162 µM): 0.49
relative viability (NCI-H322M; first compound 0.1 µM): 0.436
relative viability (NCI-H322M; first compound 0.3162 µM): 0.339
relative viability (NCI-H322M; first compound 1 µM): 0.488
relative viability (ChaGo-K-1; first compound 0.01 µM): 0.906
relative viability (ChaGo-K-1; first compound 0.03162 µM): 0.902
relative viability (ChaGo-K-1; first compound 0.1 µM): 0.951
relative viability (ChaGo-K-1; first compound 0.3162 µM): 0.962
relative viability (ChaGo-K-1; first compound 1 µM): 0.885
relative viability (LCLC-103H; first compound 0.01 µM): 0.691
relative viability (LCLC-103H; first compound 0.03162 µM): 0.719
relative viability (LCLC-103H; first compound 0.1 µM): 0.75
relative viability (LCLC-103H; first compound 0.3162 µM): 0.68
relative viability (LCLC-103H; first compound 1 µM): 0.579
relative viability (LU99A; first compound 0.01 µM): 0.593
relative viability (LU99A; first compound 0.03162 µM): 0.537
relative viability (LU99A; first compound 0.1 µM): 0.527
relative viability (LU99A; first compound 0.3162 µM): 0.6
relative viability (LU99A; first compound 1 µM): 0.505
relative viability (PC-14; first compound 0.01 µM): 0.956
relative viability (PC-14; first compound 0.03162 µM): 0.836
relative viability (PC-14; first compound 0.1 µM): 1.16
relative viability (PC-14; first compound 0.3162 µM): 0.759
relative viability (PC-14; first compound 1 µM): 0.591
relative viability (NCI-H2342; first compound 0.01 µM): 0.787
relative viability (NCI-H2342; first compound 0.03162 µM): 0.783
relative viability (NCI-H2342; first compound 0.1 µM): 0.815
relative viability (NCI-H2342; first compound 0.3162 µM): 0.858
relative viability (NCI-H2342; first compound 1 µM): 0.928

Source: the supplement of paper PMC10307832
